In paper PMC12592400, “A unique inhibitor conformation selectively targets the DNA polymerase PolC of Gram-positive priority pathogens” (Nature Communications, 2025):
“And” between values parts separate entries of the source, which are not always exact repeats. Equal entries are not always repeated.

Columns and labels:
[1] = target: T1, E. faecium PolC^F1276S (exonuclease-inactivated) (Enterococcus faecium, UniProt A0A9X4B319, D429A/E431A/F1274S); assay: Real-time DNA primer extension assay; type: biochemical; settings: for rate of activity (slope of fluorescence intensity change over time): Fig. 4b source data, F1267S
T1 sequence (A0A9X4B319 1-1450 D429A/E431A/F1274S): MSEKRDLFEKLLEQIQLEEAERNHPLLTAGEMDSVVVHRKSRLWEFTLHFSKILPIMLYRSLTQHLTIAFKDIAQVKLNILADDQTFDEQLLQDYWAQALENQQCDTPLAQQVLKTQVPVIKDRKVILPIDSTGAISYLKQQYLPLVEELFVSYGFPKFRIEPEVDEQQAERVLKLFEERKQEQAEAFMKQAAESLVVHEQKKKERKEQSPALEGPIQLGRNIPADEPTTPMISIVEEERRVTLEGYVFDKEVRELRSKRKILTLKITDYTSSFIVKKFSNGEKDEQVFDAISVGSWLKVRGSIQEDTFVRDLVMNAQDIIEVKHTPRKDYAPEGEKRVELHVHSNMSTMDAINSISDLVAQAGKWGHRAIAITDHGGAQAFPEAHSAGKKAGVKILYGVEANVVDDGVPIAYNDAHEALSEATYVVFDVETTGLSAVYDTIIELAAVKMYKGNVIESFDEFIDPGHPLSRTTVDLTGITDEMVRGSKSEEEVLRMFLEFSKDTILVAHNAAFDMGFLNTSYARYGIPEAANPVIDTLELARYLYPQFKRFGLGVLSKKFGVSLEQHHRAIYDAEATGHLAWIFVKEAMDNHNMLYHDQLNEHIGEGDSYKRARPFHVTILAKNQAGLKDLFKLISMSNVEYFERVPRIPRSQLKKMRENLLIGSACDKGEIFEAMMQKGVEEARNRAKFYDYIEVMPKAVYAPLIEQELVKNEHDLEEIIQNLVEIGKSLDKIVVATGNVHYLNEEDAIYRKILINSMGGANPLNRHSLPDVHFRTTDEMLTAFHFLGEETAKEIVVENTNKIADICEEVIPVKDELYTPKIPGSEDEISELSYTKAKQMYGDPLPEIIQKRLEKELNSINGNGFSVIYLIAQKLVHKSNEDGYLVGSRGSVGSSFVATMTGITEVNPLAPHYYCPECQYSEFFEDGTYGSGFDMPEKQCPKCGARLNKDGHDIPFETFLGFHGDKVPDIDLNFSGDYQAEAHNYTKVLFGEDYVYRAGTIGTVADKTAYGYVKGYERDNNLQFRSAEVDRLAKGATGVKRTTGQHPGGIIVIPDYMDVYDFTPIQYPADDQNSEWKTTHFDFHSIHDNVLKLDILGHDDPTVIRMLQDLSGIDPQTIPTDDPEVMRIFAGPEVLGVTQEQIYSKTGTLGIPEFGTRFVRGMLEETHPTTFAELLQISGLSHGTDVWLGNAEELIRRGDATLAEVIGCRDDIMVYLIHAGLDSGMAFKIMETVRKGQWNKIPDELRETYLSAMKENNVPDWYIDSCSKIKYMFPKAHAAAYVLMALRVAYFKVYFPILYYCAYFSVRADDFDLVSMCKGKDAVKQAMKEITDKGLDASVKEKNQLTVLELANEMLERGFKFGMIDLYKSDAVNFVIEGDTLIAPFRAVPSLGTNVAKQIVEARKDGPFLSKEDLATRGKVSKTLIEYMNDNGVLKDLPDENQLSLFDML
Text: The genes for PolC (locus_tag: MIBBHLJO_01574) and DnaE (locus_tag: MIBBHLJO_00911) from E. faecium ATCC 700221 were codon-optimized for expression in E. coli and synthesized in vector pET28b by Twist Bioscience (San Francisco, CA). Expression constructs for variant PolC proteins were created with QuikChange Site-Directed Mutagenesis (Agilent) with oligonucleotides listed in Supplementary Table 3. F1276L, F1276S, and A1281T were introduced to assess the effect of these mutations on inhibition by ACX compounds. Mutations D972A and D974A were introduced to inactivate the polymerase activity and mutations D431A and E433A were introduced to inactivate the exonuclease activity (Fig. 1d, Supplementary Fig. 1).
Polymerase activity was monitored in real-time[31],[32] with a 42-nt long 5’ carboxyfluorescein-labelled DNA oligonucleotide template strand (DNASP8_42) annealed to a 30-nt primer oligonucleotide (oMU014). Polymerase activity in this assay is monitored by measuring fluorescence quenching of the labelled DNA template as a result of primer extension by PolC (for details see Supplementary Fig. 1b, c). Both primers were HPLC purified. Primer extension assays were performed in Reaction Buffer (see Gel-based polymerase and exonuclease assays) supplemented with 0.5 mg/mL BSA, 0.05% Tween20 and 25 uM of each dNTP (SRB) in 384-well Black Round Bottom plates (Corning 4514). The polymerase was diluted in the SRB and incubated for at least 5 min in the presence of inhibitor or solvent, with a final solvent concentration of 1%. The reaction was initiated by the addition of an equal volume of DNA substrate in SRB as described below. Fluorescence emission data was collected with a BMG Labtech PHERAstar FSX reader for 30 min at room temperature.
Compounds were dispensed with an Echo acoustic liquid handler (Beckman Coulter). All compounds were dissolved to 1 mM and 10 mM stocks in 100% DMSO and transferred to Echo LDV or PP source plates (Labcyte, Inc., CA), then dispensed to 384-well plates with a Labcyte Echo550 or Echo650 acoustic dispenser at volumes of 2.5 to 100 nL per well. […] A Mantis microfluidic liquid dispenser (Formulatrix) was used to dispense 5 µL polymerase and 5 µL substrate DNA (individually diluted in SRB) per well. […] The final concentration of DNA was 70 nM.
Data were analysed and standard error of the means (SEM) determined in Prism 8.4.2 and 10.2.3 (GraphPad). Raw time-course polymerase activity was plotted against time, with SEM of triplicates determined. The rate of activity (represented by signal quenching) was determined during the first 8 min (linear stage) by calculating the slope of fluorescence intensity change (converted to a positive value) over time (in seconds). The slopes were then normalized to percentage activity (%); per ‘replicate range’, 100% activity was defined as polymerase activity in the absence of inhibitor (polymerase control), and 0% activity was determined in the absence of polymerase (DNA signal; negative control). The SEM was determined between ‘replicate ranges’. The IC50 was determined using the dose-response (inhibition) nonlinear regression ‘[Inhibitor] vs. response (three parameters)’ without constraints.

[2] = cited from earlier work

O=c1[nH]c(NCc2ccc(Cl)c(Cl)c2)nc2ncn(CCN3CCOCC3)c12 [IBZ, N^2-(3,4-dichlorobenzyl)-7-(2-[1-morpholinyl]ethyl)guanine]
IC50 [1]: > 225 µM | rate of activity (slope of fluorescence intensity change over time) ([1]; inhibitor 1 uM): 29.0 and 29.8 and 31.7 | rate of activity (slope of fluorescence intensity change over time) ([1]; inhibitor 1.75 uM): 30.0 and 28.9 and 29.5 | rate of activity (slope of fluorescence intensity change over time) ([1]; inhibitor 2.5 uM): 26.9 and 26.5 and 27.3 | rate of activity (slope of fluorescence intensity change over time) ([1]; inhibitor 4 uM): 31.2 and 29.8 and 29.5 | rate of activity (slope of fluorescence intensity change over time) ([1]; inhibitor 5.75 uM): 28.2 | rate of activity (slope of fluorescence intensity change over time) ([1]; inhibitor 8.8 uM): 25.6 and 30.1 and 32.4 | rate of activity (slope of fluorescence intensity change over time) ([1]; inhibitor 20 uM): 30.9 and 27.1 and 31.2 | rate of activity (slope of fluorescence intensity change over time) ([1]; inhibitor 30 uM): 29.0 and 27.4 | rate of activity (slope of fluorescence intensity change over time) ([1]; inhibitor 45 uM): 31.6 and 29.8 and 28.0 | rate of activity (slope of fluorescence intensity change over time) ([1]; inhibitor 67.5 uM): 29.0 and 32.1 and 30.5 | rate of activity (slope of fluorescence intensity change over time) ([1]; inhibitor 100 uM): 28.6 and 28.2 | rate of activity (slope of fluorescence intensity change over time) ([1]; inhibitor 150 uM): 27.2 and 24.9 and 25.9 | rate of activity (slope of fluorescence intensity change over time) ([1]; inhibitor 225 uM): 28.0 and 22.8 | absorption [2]: poorly absorbed | faecal levels [2]: > 1000 μg/g stool

O=c1[nH]c(NCc2ccc3c(c2)OC(F)(F)O3)nc2c(F)nn(CCO)c12 [ACX-801, 5-(((2,2-difluorobenzo[d][1,3]dioxol-5-yl)methyl)amino)-3-fluoro-1-(2-hydroxyethyl)-1,6-dihydro-7H-pyrazolo[4,3-d]pyrimidin-7-one]
IC50 [1]: 101 ± 8.8 µM | rate of activity (slope of fluorescence intensity change over time) ([1]; inhibitor 1 uM): 29.5 and 29.8 and 30.7 | rate of activity (slope of fluorescence intensity change over time) ([1]; inhibitor 1.75 uM): 30.8 and 30.2 and 30.4 | rate of activity (slope of fluorescence intensity change over time) ([1]; inhibitor 2.5 uM): 31.6 and 32.7 and 27.4 | rate of activity (slope of fluorescence intensity change over time) ([1]; inhibitor 4 uM): 31.4 and 30.5 and 33.1 | rate of activity (slope of fluorescence intensity change over time) ([1]; inhibitor 5.75 uM): 30.4 and 30.7 and 31.4 | rate of activity (slope of fluorescence intensity change over time) ([1]; inhibitor 8.8 uM): 31.4 and 31.3 and 30.8 | rate of activity (slope of fluorescence intensity change over time) ([1]; inhibitor 20 uM): 28.6 and 27.8 | rate of activity (slope of fluorescence intensity change over time) ([1]; inhibitor 30 uM): 22.8 and 24.4 and 24.1 | rate of activity (slope of fluorescence intensity change over time) ([1]; inhibitor 45 uM): 18.0 and 19.1 | rate of activity (slope of fluorescence intensity change over time) ([1]; inhibitor 67.5 uM): 14.6 and 12.2 | rate of activity (slope of fluorescence intensity change over time) ([1]; inhibitor 100 uM): 10.5 and 12.0 and 13.4 | rate of activity (slope of fluorescence intensity change over time) ([1]; inhibitor 225 uM): 6.1 and 6.2 and 5.0
